Laboratory results: EP4782434A1, “N-SULFONYL CARBOXAMIDE COMPOUND, AND PREPARATION METHOD THEREFOR AND USE THEREOF” (Nutshell Therapeutics (Shanghai) Co., Ltd., priority 2023, dated 2025)

What was measured:
Polθ ATPase = biological target: T1, Polθ ATPase (Homo sapiens, UniProt O75417); test: Polθ ATPase activity assay (ADP-Glo Kinase Assay kit); assay type: biochemical; settings: truncated POLQ-N protein (aa 1-894) 1 nM, 50 nM ssDNA, 50 µM ATP
T1 construct: purified truncated POLQ-N protein (aa 1-894, N-terminal 6-His tag); 6-His (N)
Description: The inhibitory efficiency of the compounds of formula (I) against Polθ ATPase activity was determined using the ADP-Glo Kinase Assay kit (Promega, V9101). […] The starting (final) concentration was 100 nM, followed by a 3-fold serial dilution for a total of 10 concentration points in duplicate (n=2). 5 μL of purified […], N-terminal 6-His tag) was added to each well. After centrifugation at 1000 rpm for 1 minute, the plate was incubated at 25°C for 10 minutes. 5 μL of substrate reaction solution (containing ATP & ssDNA) was added to each well, and the reaction was carried out at 25°C for 60 minutes. 5 μL of ADP-Glo Reagent was added to each well. After centrifugation at 1000 rpm for 1 minute, the plate was incubated at 25°C for 40 minutes. 10 μL of detection solution was added to each well. After centrifugation at 1000 rpm for 1 minute, the plate was incubated at 25°C for 40 minutes. Luminescence signals were recorded using a microplate reader (BMG, PHERAstar FSX). The final reaction system contained 1 nM of POLQ-N enzyme; 50 nM of ssDNA ([NT]); 50 μM of ATP; and 1% DMSO. The inhibition percentage (%) of the compound at each concentration was calculated using the RFU values normalized against the control wells within each assay plate. Table 1: Inhibitory activity of compounds against Polθ ATPase

DLD-1 BRCA2-/- cells = test: DLD-1 BRCA2-/- cell proliferation assay (CellTiter-Glo, 10 days incubation); assay type: cell-based; settings: Homo sapiens, 240 h, DLD-1 BRCA2-/- cell line, total incubation period of 10 days, read-out: DLD1 BRCA2^-/- IC50
Text: The anti-proliferative effect of the compounds on the human colorectal adenocarcinoma cell line DLD-1 BRCA2^-/- method.
• DLD-1 (purchased from ATCC, Cat. No.: CCL-221, Batch No.: 70033255); • RPMI1640 (purchased from Invitrogen, Cat. No.: 11875-085); • 0.25% Trypsin-EDTA (purchased from Invitrogen, Cat. No.: 25200-072); • Penicillin-Streptomycin solution (purchased from Hyclone, Cat. No.: SV30010); • FBS (purchased from BI, Cat. No.: 04-002-1A); • DMSO (purchased from Sigma, Cat. No.: D4540-1L); • 96-well plate (purchased from Corning, Cat. No.: CLS3903); • CellTiter-Glo reagent (purchased from Promega, Cat. No.: G7558).
The anti-proliferative effect of the compounds on a human colorectal adenocarcinoma cell line was evaluated using an ATP quantification method, wherein the measured activity correlates well with the number of viable cells. The genetically edited cell line DLD-1 BRCA2^-/- was cultured in RPMI 1640 medium (Invitrogen, 11875-085) supplemented with 10% (v/v) fetal bovine serum (BI, 04-002-1A). The cell line was cultured according to the standard instructions of the American Type Culture Collection (ATCC) and identified via short tandem repeat (STR) genotyping.
In the proliferation assay, cells were harvested and resuspended in cell culture medium. Cell density was determined using a cell counter. An appropriate volume of cell suspension was aspirated from the centrifuge tube to prepare a plating working solution (150 cells/100 µL for the DLD-1 BRCA2^-/- cell line). 100 µL of the cell suspension was seeded into each well of a 96-well plate (Corning, 3603) and incubated overnight in an incubator. The diluted test compound solutions were added to the wells. On the fourth and seventh days of compound incubation, the medium was replaced with fresh culture medium, and the compounds were re-administered, for a total incubation period of 10 days. Following incubation, the cell culture plates were removed and equilibrated to room temperature. 100 µL of CellTiter-Glo (Promega, G7558) was added to each well, and the plate was incubated at room temperature for 30 minutes. Data were read using a microplate reader (PerkinElmer, Enspire) in 96-well luminescence mode. Data analysis, curve fitting, and reporting were performed using the dose-response one-site 205 model of IDBS XL fit. Table 2: Proliferation inhibitory activity of compounds against DLD-1 BRCA2-/- cells

[1] = test system: Theta-mediated end joining (TMEJ) process in HEK293T cells; test: TMEJ reporter assay (NanoGlo luciferase); assay type: cell-based; settings: Homo sapiens, HEK-293T, HEK293T cells electroporated with TMEJ substrate, 24 hours
Description: The inhibitory effect of the compounds on the Theta-mediated end joining (TMEJ) process was evaluated.
(1) HEK293T cells were cultured in DMEM supplemented with 10% heat-inactivated fetal bovine serum (FBS) and 1% penicillin-streptomycin (PS). (2) Prior to startup, the Neon transfection system was disinfected, and E2 and R buffers were equilibrated to room temperature. (3) Culture medium without antibiotics was pre-warmed. (4) Cells in the flask reaching 80-90% confluency were trypsinized, neutralized with culture medium, centrifuged, and counted. (5) For transfection using a 100 µL electroporation tip, 2 × 10^6 cells were taken, washed once with DPBS (without Mg^2+ and Ca^2+), centrifuged at 1000 rpm for 5 min, and the supernatant was discarded. The number of cells and volume may be increased as required. (6) The Neon system was set up; a Neon tube was inserted into the Neon pipette and E2 buffer was added. (7) 10 µg of TMEJ substrate was added to 100 µL of R solution; the volume may be increased as required. (8) Cells were resuspended in DNA buffer, and electroporation was initiated according to the following parameters:
(9) The cells were loaded into antibiotic-free culture medium and mixed gently. (10) Steps (8)-(9) were repeated as necessary, and cells were seeded into 384-well plates at a density of 40,000 cells/well in 40 µL of culture medium. (11) The plates were incubated in a humidified CO2 incubator at 37°C for 24 hours. (12) NanoGlo reagent was warmed to room temperature, and NanoGlo buffer was mixed with the substrate at a ratio of 50:1. (13) The cell culture plates were equilibrated at room temperature for 10 minutes. (14) 40 µL of NanoGlo substrate buffer was added to each well, followed by shaking at 300 rpm for 3 minutes protected from light. (15) Signals were read via a BMG PHERAstar FSX.

T1 sequence (O75417 1-894): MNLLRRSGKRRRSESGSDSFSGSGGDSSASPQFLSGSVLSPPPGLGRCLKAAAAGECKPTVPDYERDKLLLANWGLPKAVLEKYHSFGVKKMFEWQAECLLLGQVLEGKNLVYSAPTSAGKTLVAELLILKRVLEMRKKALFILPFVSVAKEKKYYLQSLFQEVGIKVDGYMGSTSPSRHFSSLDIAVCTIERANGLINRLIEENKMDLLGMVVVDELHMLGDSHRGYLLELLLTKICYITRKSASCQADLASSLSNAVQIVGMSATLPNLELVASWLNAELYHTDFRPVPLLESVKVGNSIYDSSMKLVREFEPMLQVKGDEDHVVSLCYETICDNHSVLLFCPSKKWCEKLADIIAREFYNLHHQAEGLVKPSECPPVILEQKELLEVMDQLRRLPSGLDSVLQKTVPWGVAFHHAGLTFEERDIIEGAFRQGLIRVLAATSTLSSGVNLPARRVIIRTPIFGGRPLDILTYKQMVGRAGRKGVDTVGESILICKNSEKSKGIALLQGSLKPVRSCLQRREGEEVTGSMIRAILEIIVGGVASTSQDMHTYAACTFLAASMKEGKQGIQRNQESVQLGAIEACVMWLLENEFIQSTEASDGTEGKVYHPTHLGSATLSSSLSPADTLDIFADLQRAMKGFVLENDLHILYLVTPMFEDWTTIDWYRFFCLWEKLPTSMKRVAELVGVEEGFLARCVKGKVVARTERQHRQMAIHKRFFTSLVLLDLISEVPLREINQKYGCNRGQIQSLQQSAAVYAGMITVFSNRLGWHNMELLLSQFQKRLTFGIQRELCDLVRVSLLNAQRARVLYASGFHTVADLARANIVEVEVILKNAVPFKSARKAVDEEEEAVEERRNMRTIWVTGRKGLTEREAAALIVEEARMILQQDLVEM

Row | SMILES | IC50 (Polθ ATPase; class symbols) | IC50 (Polθ ATPase; specific values) | IC50 (DLD-1 BRCA2-/- cells) | IC50 [1]
1 | COc1ccc(C(F)F)cc1-c1cc(C)ccc1C(=O)NS(=O)(=O)Cc1ccc([C@H](C)OC)cc1 [cpd-3, (S)-5'-(difluoromethyl)-2'-methoxy-N-((4-(1-methoxyethyl)benzyl)sulfonyl)-5-methyl-[1,1'-biphenyl]-2-carboxamide] | ≤ 2 nM | 0.71 nM | 24 nM | 
2 | COc1cnc(C(F)F)cc1-c1cc(C)ccc1C(=O)NS(=O)(=O)Cc1ccc([C@H](C)OC)cc1 [cpd-4, (S)-2-(2-(Difluoromethyl)-5-methoxypyridin-4-yl)-N-((4-(1-methoxyethyl)benzyl)sulfonyl)-4-methylbenzamide] | ≤ 2 nM | 0.65 nM | 17 nM | 1 nM
3 | COc1ccc(C(F)F)cc1-c1cc(C)ncc1C(=O)NS(=O)(=O)Cc1ccc([C@H](C)OC)cc1 [cpd-5, (S)-4-(5-(Difluoromethyl)-2-methoxyphenyl)-N-((4-(1-methoxyethyl)benzyl)sulfonyl)-6-methylnicotinamide] | ≤ 2 nM | 0.5 nM | 27 nM | 1 nM
4 | COc1cnc(C(F)F)cc1-c1cc(C)ncc1C(=O)NS(=O)(=O)Cc1ccc([C@H](C)OC)cc1 [cpd-6, (S)-2'-(Difluoromethyl)-5'-methoxy-N-((4-(1-methoxyethyl)benzyl)sulfonyl)-6-methyl-[4,4'-bipyridine]-3-carboxamide] | ≤ 2 nM | 0.6 nM | 189 nM | 
5 | COc1ccc(C(F)F)cc1-c1cc(C)ccc1C(=O)NS(=O)(=O)Cc1ccc([C@@H](C)OC)cc1 [cpd-7, (R)-5'-(Difluoromethyl)-2'-methoxy-N-((4-(1-methoxyethyl)benzyl)sulfonyl)-5-methyl-[1,1'-biphenyl]-2-carboxamide] | ≤ 2 nM | 0.71 nM | 59 nM | 
6 | COc1cnc(C(F)F)cc1-c1cc(C)ccc1C(=O)NS(=O)(=O)Cc1ccc([C@@H](C)OC)cc1 [cpd-8, (R)-2-(2-(Difluoromethyl)-5-methoxypyridin-4-yl)-N-((4-(1-methoxyethyl)benzyl)sulfonyl)-4-methylbenzamide] | ≤ 2 nM | 0.72 nM | 57 nM | 2 nM
7 | COc1ccc(C(F)F)cc1-c1cc(C)ncc1C(=O)NS(=O)(=O)Cc1ccc([C@@H](C)OC)cc1 [cpd-9, (R)-4-(5-(Difluoromethyl)-2-methoxyphenyl)-N-((4-(1-methoxyethyl)benzyl)sulfonyl)-6-methylnicotinamide] | ≤ 2 nM | 0.52 nM | 63 nM | 
8 | COc1cnc(C(F)F)cc1-c1cc(C)ncc1C(=O)NS(=O)(=O)Cc1ccc([C@@H](C)OC)cc1 [cpd-10, (R)-2'-(Difluoromethyl)-5'-methoxy-N-((4-(1-methoxyethyl)benzyl)sulfonyl)-6-methyl-[4,4'-bipyridine]-3-carboxamide] | ≤ 2 nM | 1.1 nM | 514 nM | 
9 | COc1ccc(C(F)F)cc1-c1cc(CC(=O)N(C)C)ccc1C(=O)NS(=O)(=O)Cc1ccc(C(C)C)cc1 [cpd-11, 5'-(Difluoromethyl)-5-(2-(dimethylamino)-2-oxoethyl)-N-((4-isopropylbenzyl)sulfonyl)-2'-methoxy-[1,1'-biphenyl]-2-carboxamide] | ≤ 2 nM | 0.53 nM | 99 nM | 2 nM
10 | COc1ccc(C(F)F)cc1-c1cc(CC(=O)N(C)C2CC2)ccc1C(=O)NS(=O)(=O)Cc1ccc(C(C)C)cc1 [cpd-12, 5-(2-(Cyclopropyl(methyl)amino)-2-oxoethyl)-5'-(difluoromethyl)-N-((4-isopropylbenzyl)sulfonyl)-2'-methoxy-[1,1'-biphenyl]-2-carboxamide] | ≤ 2 nM | 1 nM | 70 nM | 
11 | COc1ccc(C(F)F)cc1-c1cc(Cc2nnc(C)o2)ccc1C(=O)NS(=O)(=O)Cc1ccc(C(C)C)cc1 [cpd-13, 5'-(Difluoromethyl)-N-((4-isopropylbenzyl)sulfonyl)-2'-methoxy-5-((5-methyl-1,3,4-oxadiazol-2-yl)methyl)-[1,1'-biphenyl]-2-carboxamide] | ≤ 2 nM | 0.88 nM | 202 nM | 
12 | COc1ccc(C(F)F)cc1-c1cc(C)ccc1C(=O)NS(=O)(=O)Cc1ccc(C(OC)C(F)(F)F)cc1 (stereo not drawn) [cpd-14, 5'-(Difluoromethyl)-2'-methoxy-5-methyl-N-((4-(2,2,2-trifluoro-1-methoxyethyl)benzyl)sulfonyl)-[1,1'-biphenyl]-2-carboxamide] | ≤ 2 nM | 1.6 nM | 108 nM | 
13 | COc1ccc(C(F)F)cc1-c1cc(C)ccc1C(=O)NS(=O)(=O)Cc1ccc(COC(F)F)cc1 [cpd-15, N-((4-((Difluoromethoxy)methyl)benzyl)sulfonyl)-5'-(difluoromethyl)-2'-methoxy-5-methyl-[1,1'-biphenyl]-2-carboxamide] |  |  | 154 nM | 
14 | COc1ccc(C(F)F)cc1-c1cc(C)ccc1C(=O)NS(=O)(=O)Cc1ccc(C(C)OC)nc1 (stereo not drawn) [cpd-20, 5'-(Difluoromethyl)-2'-methoxy-N-(((6-(1-methoxyethyl)pyridin-3-yl)methyl)sulfonyl)-5-methyl-[1,1'-biphenyl]-2-carboxamide] | ≤ 2 nM | 1.4 nM |  | 
15 | [2H]C([2H])([2H])O[C@@H](C)c1ccc(CS(=O)(=O)NC(=O)c2ccc(C([2H])([2H])[2H])cc2-c2nc(C(F)F)c(F)cc2OC)cc1 [cpd-23, (S)-2-(6-(Difluoromethyl)-5-fluoro-3-methoxypyridin-2-yl)-N-((4-(1-(methoxy-d3)ethyl)benzyl)sulfonyl)-4-(methyl-d3)benzamide] |  |  | 22 nM | 
16 | [2H]C([2H])([2H])O[C@@H](C)c1ccc(CS(=O)(=O)NC(=O)c2ccc(C([2H])([2H])[2H])cc2-c2cc(C(F)F)c(F)nc2OC)cc1 [cpd-24, (S)-2-(5-(Difluoromethyl)-6-fluoro-2-methoxypyridin-3-yl)-N-((4-(1-(methoxy-d3)ethyl)benzyl)sulfonyl)-4-(methyl-d3)benzamide] |  |  | 33 nM | 
